# Test results as given in PMC6979384, “Characterization of the plant homeodomain (PHD) reader family for their histone tail interactions” (Epigenetics & Chromatin, 2020).
# Assays:
# Assay in all cases: Histone peptide microarray
# Type in all cases: binding, human
# Conditions in all cases: GST-tagged reader, histone peptide array
# [1] = test system: AIRE (PP)
# Excerpt: (§1) To more comprehensively define the histone interactions of the 31 PHD readers identified from the domain microarray analyses, we probed each on an alternate microarray platform containing a library of 293 synthetic histone peptides with single or combinatorial PTMs (Additional file 2: Figure S4 and Additional file 3: Table S2).
# (§2) The 31 GST-tagged PHD readers identified in the PHD finger domain array were expressed and purified as previously. Histone peptide arrays and peptide pulldown assays were conducted as recently described (specifically, the optimized protocol from Petell et al. for the former).
# (§3) Supplementary file 13072_2020_328_MOESM3_ESM.xlsx: Additional file 3: Table S2. […] Excel Tab Peptide List is a compiled list of the entire 293 histone peptide library with amino acid sequence ranges. […] Each number corresponds to the peptide number designated in Peptide List. Excel Tab Average Signals is a compiled set of binding data: chromatin reader at 0.5 μM vs. entire 293 peptide library. Data is presented as the average and standard deviation of 4 replicates. The average signals are colored to indicate signal intensity with green being strong and white being weak/low. […] Key: red= stronger relative binding; blue = weaker relative binding. Excel Tab Array info summary is a table summarizing the domains, sequence coverage, array signal range, and noise for each of the GST-tagged readers assayed on the peptide microarrays.
# [2] = test system: BAZ2B
# Excerpt: as §1, §2, §3
# [3] = test system: BPTF (PB)
# Excerpt: as §1, §2, §3
# [4] = test system: CHD4 (PPCC)
# Excerpt: as §1, §2, §3
# [5] = test system: CHD5 (PCC)
# Excerpt: as §1, §2, §3
# [6] = test system: CHD5 (PPCC)
# Excerpt: as §1, §2, §3
# [7] = test system: DIDO1
# Excerpt: as §1, §2, §3
# [8] = test system: DPF2 (PPC2W2)
# Excerpt: as §1, §2, §3
# [9] = test system: ING1
# Excerpt: as §1, §2, §3
# [10] = test system: ING2
# Excerpt: as §1, §2, §3
# [11] = test system: ING3
# Excerpt: as §1, §2, §3
# [12] = test system: ING4
# Excerpt: as §1, §2, §3
# [13] = test system: ING5
# Excerpt: as §1, §2, §3
# [14] = test system: KDM4C (TTP)
# Excerpt: as §1, §2, §3
# [15] = test system: KDM5A (1)
# Excerpt: as §1, §2, §3
# [16] = test system: KDM5A (3)
# Excerpt: as §1, §2, §3
# [17] = test system: KDM5B (1)
# Excerpt: as §1, §2, §3
# [18] = test system: KDM5B (3)
# Excerpt: as §1, §2, §3
# [19] = test system: KDM7A
# Excerpt: as §1, §2, §3
# [20] = test system: MLL5
# Excerpt: as §1, §2, §3
# [21] = test system: MORC3 (CW)
# Excerpt: as §1, §2, §3
# [22] = test system: PHF13
# Excerpt: as §1, §2, §3
# [23] = test system: PHF21A
# Excerpt: as §1, §2, §3
# [24] = test system: PHF23
# Excerpt: as §1, §2, §3
# [25] = test system: PHF2
# Excerpt: as §1, §2, §3
# [26] = test system: PHF8
# Excerpt: as §1, §2, §3
# [27] = test system: PHRF1 (RP)
# Excerpt: as §1, §2, §3
# [28] = test system: RAG2
# Excerpt: as §1, §2, §3
# [29] = test system: SP140L
# Excerpt: as §1, §2, §3
# [30] = test system: TAF3
# Excerpt: as §1, §2, §3
# [31] = test system: TRIM66 (PB)
# Excerpt: as §1, §2, §3
# [32] = sheet "Array Heatmap", total n = 4
# [33] = PB = PHD + Bromodomain, arrays performed twice, n of 4
# [34] = PPCC = Dual PHD + Dual Chromodomain, arrays performed twice, n of 4
substance,measurement,setting,value
H3K4me3 + T6p: H3 1-20,"Array Heatmap signal, AIRE (PP)",[1]; [32],0.4133
same,"Array Heatmap signal, BAZ2B",[2]; [32],0.4415
same,"Array Heatmap signal, BPTF (PB)",[3]; [32],0.3519
same,"Array Heatmap signal, CHD4 (PPCC)",[4]; [32],0.5535
same,"Array Heatmap signal, CHD5 (PCC)",[5]; [32],0.7037
same,"Array Heatmap signal, CHD5 (PPCC)",[6]; [32],0.54
same,"Array Heatmap signal, DIDO1",[7]; [32],0.7585
same,"Array Heatmap signal, DPF2 (PPC2W2)",[8]; [32],0.6833
same,"Array Heatmap signal, ING1",[9]; [32],0.5971
same,"Array Heatmap signal, ING2",[10]; [32],0.6187
same,"Array Heatmap signal, ING3",[11]; [32],0.4695
same,"Array Heatmap signal, ING4",[12]; [32],0.4567
same,"Array Heatmap signal, ING5",[13]; [32],0.3481
same,"Array Heatmap signal, KDM4C (TTP)",[14]; [32],0.4688
same,"Array Heatmap signal, KDM5A (1)",[15]; [32],0.452
same,"Array Heatmap signal, KDM5A (3)",[16]; [32],0.4911
same,"Array Heatmap signal, KDM5B (1)",[17]; [32],0.6162
same,"Array Heatmap signal, KDM5B (3)",[18]; [32],0.4934
same,"Array Heatmap signal, KDM7A",[19]; [32],0.3405
same,"Array Heatmap signal, MLL5",[20]; [32],0.5684
same,"Array Heatmap signal, MORC3 (CW)",[21]; [32],0.3571
same,"Array Heatmap signal, PHF13",[22]; [32],0.5795
same,"Array Heatmap signal, PHF21A",[23]; [32],0.4225
same,"Array Heatmap signal, PHF23",[24]; [32],0.5195
same,"Array Heatmap signal, PHF2",[25]; [32],0.6668
same,"Array Heatmap signal, PHF8",[26]; [32],0.3678
same,"Array Heatmap signal, PHRF1 (RP)",[27]; [32],0.5056
same,"Array Heatmap signal, RAG2",[28]; [32],0.2443
same,"Array Heatmap signal, SP140L",[29]; [32],0.3667
same,"Array Heatmap signal, TAF3",[30]; [32],0.309
same,"Array Heatmap signal, TRIM66 (PB)",[31]; [32],0.549
H4K8but (1-23): H4 1-23,"Array Heatmap signal, AIRE (PP)","[1]; arrays performed twice, n of 4",0.5833
same,"Array Heatmap signal, BAZ2B","[2]; arrays performed twice, n of 4",0.516
same,"Array Heatmap signal, BPTF (PB)",[3]; [33],0.3704
same,"Array Heatmap signal, CHD4 (PPCC)",[4]; [34],0.5879
same,"Array Heatmap signal, CHD5 (PCC)","[5]; PCC = PHD + Dual Chromodomain, arrays performed twice, n of 4",0.8434
same,"Array Heatmap signal, CHD5 (PPCC)",[6]; [34],0.6043
same,"Array Heatmap signal, DIDO1","[7]; arrays performed twice, n of 4",0.6187
same,"Array Heatmap signal, DPF2 (PPC2W2)","[8]; PPC2W2 = Dual PHD + C2W2-type Zn-finger, arrays performed twice, n of 4",0.6771
same,"Array Heatmap signal, ING1","[9]; arrays performed twice, n of 4",0.5208
same,"Array Heatmap signal, ING2","[10]; arrays performed twice, n of 4",0.5968
same,"Array Heatmap signal, ING3","[11]; arrays performed twice, n of 4",0.4842
same,"Array Heatmap signal, ING4","[12]; arrays performed twice, n of 4",0.503
same,"Array Heatmap signal, ING5","[13]; arrays performed twice, n of 4",0.3969
same,"Array Heatmap signal, KDM4C (TTP)","[14]; TTP = Tandem Tudor domain + PHD, arrays performed twice, n of 4",0.554
same,"Array Heatmap signal, KDM5A (1)","[15]; arrays performed twice, n of 4",0.5298
same,"Array Heatmap signal, KDM5A (3)","[16]; arrays performed twice, n of 4",0.4217
same,"Array Heatmap signal, KDM5B (1)","[17]; arrays performed twice, n of 4",0.6708
same,"Array Heatmap signal, KDM5B (3)","[18]; arrays performed twice, n of 4",0.4914
same,"Array Heatmap signal, KDM7A","[19]; arrays performed twice, n of 4",0.4551
same,"Array Heatmap signal, MLL5","[20]; arrays performed twice, n of 4",0.5606
same,"Array Heatmap signal, MORC3 (CW)","[21]; CW = CW-type Zn-finger, arrays performed twice, n of 4",0.3738
same,"Array Heatmap signal, PHF13","[22]; arrays performed twice, n of 4",0.6477
same,"Array Heatmap signal, PHF21A","[23]; arrays performed twice, n of 4",0.5096
same,"Array Heatmap signal, PHF23","[24]; arrays performed twice, n of 4",0.5244
same,"Array Heatmap signal, PHF2","[25]; arrays performed twice, n of 4",0.4448
same,"Array Heatmap signal, PHF8","[26]; arrays performed twice, n of 4",0.3491
same,"Array Heatmap signal, PHRF1 (RP)","[27]; arrays performed twice, n of 4",0.4442
same,"Array Heatmap signal, RAG2","[28]; arrays performed twice, n of 4",0.2428
same,"Array Heatmap signal, SP140L","[29]; arrays performed twice, n of 4",0.3902
same,"Array Heatmap signal, TAF3","[30]; arrays performed twice, n of 4",0.3164
same,"Array Heatmap signal, TRIM66 (PB)",[31]; [33],0.6276
